Test results as given in patent US5200505A, “R106 compounds” (Takara Shuzo Co., Ltd., priority 1990, dated 1993).
Numbered stars: 1 amine (or outer) side, 2 acyl side, 3 side chain; on linkers, the order of the positions; unused ones are H or OH. Square brackets hold non-standard residues; d marks the D form. Peptide text beside a SMILES is read from it. NMePhe(3-F) = CN[C@@H](Cc1cccc(F)c1)C(=O)O; NMePhe(2-F) = CN[C@@H](Cc1ccccc1F)C(=O)O; NMeVal(β-OH) = CN[C@H](C(=O)O)C(C)(C)O; Phe(3-F) = N[C@@H](Cc1cccc(F)c1)C(=O)O; Phe(2-F) = N[C@@H](Cc1ccccc1F)C(=O)O; NMeY = CN[C@@H](Cc1ccc(O)cc1)C(=O)O; NMeF = CN[C@@H](Cc1ccccc1)C(=O)O; aIle = CC[C@@H](C)[C@H](N)C(=O)O; X1 = CCC(C)C(O[*:1])C(=O)[*:2]; NMeV = CN[C@H](C(=O)O)C(C)C; NMeS = CN[C@@H](CO)C(=O)O; Thz = O=C(O)[C@@H]1CSCN1

Test: Solubility in water
Type: physicochemical
Details: compared with antibiotics R106

Row | SMILES | solubility in water
1 | CCC(C)C1OC(=O)[C@H](C(C)(C)O)N(C)C(=O)[C@H](CC(C)C)NC(=O)[C@H](C(C)C)N(C)C(=O)[C@H]([C@H](C)CC)NC(=O)[C@@H]2CSCN2C(=O)[C@H](Cc2ccccc2)N(C)C(=O)[C@H](Cc2ccccc2)NC(=O)[C@H](C(C)C)N(C)C1=O (stereo partly drawn) [Compound 5] (cyclo(F[NMeF][Thz][aIle][NMeV]L[NMeVal(β-OH)][X1][NMeV])) | higher
2 | CCC(C)C1OC(=O)[C@H](C(C)(C)O)N(C)C(=O)[C@H](CC(C)C)NC(=O)[C@H](C(C)C)N(C)C(=O)[C@H]([C@H](C)CC)NC(=O)[C@@H]2CCCN2C(=O)[C@H](Cc2cccc(F)c2)N(C)C(=O)[C@H](Cc2cccc(F)c2)NC(=O)[C@H](C(C)C)N(C)C1=O (stereo partly drawn) [Compound 2] (cyclo(L[NMeVal(β-OH)][X1][NMeV][Phe(3-F)][NMePhe(3-F)]P[aIle][NMeV])) | higher
3 | CCC(C)C1OC(=O)[C@H](C(C)(C)O)N(C)C(=O)[C@H](CC(C)C)NC(=O)[C@H](C(C)C)N(C)C(=O)[C@H]([C@H](C)CC)NC(=O)[C@@H]2CCCN2C(=O)[C@H](CO)N(C)C(=O)[C@H](Cc2ccccc2)NC(=O)[C@H](C(C)C)N(C)C1=O (stereo partly drawn) [Compound 9] (cyclo(F[NMeS]P[aIle][NMeV]L[NMeVal(β-OH)][X1][NMeV])) | higher
4 | CCC(C)C1OC(=O)[C@H](C(C)(C)O)N(C)C(=O)[C@H](CC(C)C)NC(=O)[C@H](C(C)C)N(C)C(=O)[C@H]([C@H](C)CC)NC(=O)[C@@H]2CCCN2C(=O)[C@H](Cc2ccccc2F)N(C)C(=O)[C@H](Cc2ccccc2F)NC(=O)[C@H](C(C)C)N(C)C1=O (stereo partly drawn) [Compound 1] (cyclo(L[NMeVal(β-OH)][X1][NMeV][Phe(2-F)][NMePhe(2-F)]P[aIle][NMeV])) | higher
5 | CCC(C)C1OC(=O)[C@H](C(C)(C)O)N(C)C(=O)[C@H](CC(C)C)NC(=O)[C@H](C(C)C)N(C)C(=O)[C@H]([C@H](C)CC)NC(=O)[C@@H]2CCCN2C(=O)[C@H](Cc2ccc(O)cc2)N(C)C(=O)[C@H](Cc2ccc(O)cc2)NC(=O)[C@H](C(C)C)N(C)C1=O (stereo partly drawn) [Compound 3] (cyclo(L[NMeVal(β-OH)][X1][NMeV]Y[NMeY]P[aIle][NMeV])) | higher
